These results are taken from patent US4623662A, “Antiatherosclerotic ureas and thioureas” (American Cyanamid Company, priority 1985, dated 1986).

Where two headings read alike, the source gives them in different places.

Usually inhibition stands for the relative decrease from the control value, in per cent.

The target in experiment [1] is T1, fatty acyl CoA: cholesterol acyl transferase (ACAT) (Rattus norvegicus, UniProt O70536).
T1 construct: The supernatant, containing the microsomal fraction, served as the source of the cholesterol-esterifying enzyme; from tissue; host or cells: rat adrenals, supernatant of 1,000 x g centrifugation containing the microsomal fraction
T1 sequence (O70536 1-545): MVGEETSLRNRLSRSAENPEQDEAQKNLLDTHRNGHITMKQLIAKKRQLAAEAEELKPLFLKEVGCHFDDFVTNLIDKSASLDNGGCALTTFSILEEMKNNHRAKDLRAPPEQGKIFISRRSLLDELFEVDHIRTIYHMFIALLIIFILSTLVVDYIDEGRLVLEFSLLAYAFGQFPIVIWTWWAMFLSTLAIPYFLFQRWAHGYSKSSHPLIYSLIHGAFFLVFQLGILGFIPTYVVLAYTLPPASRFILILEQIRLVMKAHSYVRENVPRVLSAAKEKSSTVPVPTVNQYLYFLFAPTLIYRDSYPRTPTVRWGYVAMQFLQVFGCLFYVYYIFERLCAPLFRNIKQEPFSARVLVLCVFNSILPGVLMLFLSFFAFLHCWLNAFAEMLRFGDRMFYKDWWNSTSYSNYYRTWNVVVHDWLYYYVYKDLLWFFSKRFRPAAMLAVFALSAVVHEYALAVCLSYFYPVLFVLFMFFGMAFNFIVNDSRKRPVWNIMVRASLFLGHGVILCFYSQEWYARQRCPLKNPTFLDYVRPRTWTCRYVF
Description: Inhibition of fatty acyl CoA:cholesterol acyl transferase (ACAT), rat adrenal enzyme. It is filed as biochemical. As to the method: The compounds of the present invention were assayed for two types of biological activity related to their potential use as antiatherosclerotic agents. Compounds were tested in vitro for the ability to inhibit the enzyme fatty acyl CoA: cholesterol acyl transferase (ACAT) and in vivo for serum hypolipidemic activity as meausred by the ability to inhibit lipid absorption in rats.
The compounds were tested for their ability to inhibit ACAT according to the following procedure: rat adrenals were homogenized in 0.2M monobasic potassium phosphate buffer, pH 7.4, and centrifuged at 1,000 times gravity for 15 minutes at 5° C. The supernatant, containing the microsomal fraction, served as the source of the cholesterol-esterifying enzyme, fatty acyl CoA:cholesterol acyl transferase (ACAT). A mixture comprising 50 parts of adrenal supernatant, 10 parts of bovine serum albumin (50 mg/ml), 3 parts of test compound (final concentration 5.2 μg/ml), and 500 parts of buffer was preincubated at 37° C. for 10 minutes. After treatment with 20 parts of oleoyl CoA (^14 C-0.4 μCi), the mixture was incubated at 37° C. for 10 minutes. A control mixture, omitting the test compound, was prepared and treated in the same manner. The lipids from the incubation mixture was extracted into an organic solvent and separated by thin-layer chromatography. The cholesteryl ester fraction was counted in a scintillation counter. This procedure is a modification of that described by Hashimoto, et al., Life Scie., 12 (Part II), 1-12 (1973).
Compounds which produced statistically significant inhibition of the ACAT enzyme are considered to be active.
In addition to the above described test and the results given in terms of percent inhibition, various compounds of this invention were tested by the same procedure at several concentrations. The results of this test are given in Table II in terms of IC50 (μM), that concentration which produced 50% inhibition of the ACAT enzyme.

The test system of the next experiment is cholesterol absorption. Description: Inhibition of cholesterol absorption in rats fed 1% cholesterol:0.5% cholic acid diet. It is filed as in vivo, male Sprague-Dawley rats. The following applies: po, 336 h, rat, 2 weeks; for response vs control in vivo at 0.003 %: dose .003% of the diet; for response vs control in vivo at 0.01 %: dose .01% of the diet; for response vs control in vivo at 0.001 %: dose .001% of the diet; for response vs control in vivo at 0.03 %: dose .03% of the diet. How it is done: Inhibition of cholesterol absorption was determined by feeding male Sprague-Dawley rats, weighing 150-170 g, a 1% cholesterol:0.5% cholic acid diet for 2 weeks. The diet also contained compounds being tested at a dose of 0.001, 0.003, 0.01, or 0.03% of the diet. Control rats were fed the same diet without any compound. At the end of the test, the rats were sacrificed by decapitation. Blood was collected, centrifuged at […] for 10 minutes at 4° C.; and the serum was then analyzed for cholesterol and triglycerides enzymatically by the method of Trinder, P., Analyst, 77, 321 (1952) on a Centrifichem 400 analyzer. Livers were removed, a 0.4 g sample was taken from the center of the large lobe, and the sample was subjected to saponification using 25% saturated potassium hydroxide in ethanol. The resulting neutral sterols were extracted with petroleum ether and the extract analyzed for cholesterol. The effectiveness of the compound in inhibiting cholesterol absorption was measured by the lowering of either serum cholesterol or liver cholesterol relative the values for control rats.
Compounds which produced statistically significant inhibition of cholesterol absorption are considered to be active. Liver sterol (LS) and serum sterol (SS) values are expressed as a percentage of control values.

Setting [2] is: rat adrenal ACAT, final concentration 5.2 μg/ml, read-out: % Inhibition.
Setting [3] is: read-out: LS (liver sterol), percentage of control values.
Setting [4] is: read-out: SS (serum sterol), percentage of control values.

Take `CCCCCOc1ccc(CN(Cc2ccc(CCCCC)cc2)C(=O)Nc2ccc(Cl)cc2C(F)(F)F)cc1` [1-(4-n-Pentylbenzyl)-1-(4-n-pentyloxybenzyl)-3-(2-trifluoromethyl-4-chlorophenyl)urea]: the inhibition at 5.2 µg/mL in experiment [1] (setting [2]) is 81%.
Same read-out and setting: next, `CCCCCCCCCCCCCCN(Cc1ccccc1)C(=O)Nc1ccc(C)cc1C` [1-(n-Tetradecyl)-1-benzyl-3-(2,4-dimethylphenyl)urea]: 80.3%.
As for `CCCCc1ccc(CN(CCC(C)(C)C)C(=O)Nc2cccc(C(F)(F)F)c2)cc1` [1-(3,3-Dimethylbutyl)-1-[4-(n-butyl)benzyl]-3-(3-trifluoromethylphenyl)urea], the inhibition at 5.2 µg/mL in experiment [1] is 90%.
For the molecule `CCCCCCCN(Cc1ccc(CC(C)(C)C)cc1)C(=O)Nc1c(C)cc(Cl)cc1C` [1-(n-Heptyl)-1-[4-(2,2-dimethylpropyl)phenylmethyl]-3-(4-chloro-2,6-dimethylphenyl)urea], the response vs control in vivo at 0.003 % in the experiment with cholesterol absorption (setting [3]) turned out to be 54%; in the experiment with cholesterol absorption (setting [4]), 41%.
Take `CCCCCCCN(Cc1ccc(CCCCSCC)cc1)C(=O)Nc1c(C)cc(Cl)cc1C` [1-(n-Heptyl)-1-[4-(4-ethylthiobutyl)benzyl]-3-(4-chloro-2,6-dimethylphenyl)urea]: the figures for the response vs control in vivo at 0.003 % in the experiment with cholesterol absorption (setting [3]) and in the experiment on cholesterol absorption (setting [4]) were 63% and 57%, respectively.
In the case of `CC(C)CCCCN(Cc1ccc(CCC(C)C)cc1)C(=O)Nc1ccc(F)cc1F` [1-(Isoheptyl)-1-[4-(isopentyl)benzyl]-3-(2,4-difluorophenyl)urea], the response vs control in vivo at 0.003 % with cholesterol absorption (setting [3]) amounted to 45%; in the experiment with cholesterol absorption (setting [4]), 24%.
In the case of `CCCCCCCN(Cc1ccc(CC2CCCC2)cc1)C(=O)Nc1c(C)cc(Cl)cc1C` [1-(n-Heptyl)-1-[4-(cyclopentylmethyl)benzyl]-3-(4-chloro-2,6-dimethylphenyl)urea], the response vs control in vivo at 0.003 % in the experiment with cholesterol absorption (setting [3]) worked out at 53%; in the experiment with cholesterol absorption (setting [4]), 45%.
For `CCCCCCCN(Cc1ccc(CCSC(C)C)cc1)C(=O)Nc1c(C)cc(Cl)cc1C` [1-(n-Heptyl)-1-[4-(2-isopropylthioethyl)benzyl]-3-(4-chloro-2,6-dimethylphenyl)urea], in that order: 51% and 49%.
As for `CCCCCCCN(Cc1ccc(CC(CC)CCCC)cc1)C(=O)Nc1ccc(F)cc1F` (stereo not shown) [1-(n-Heptyl)-1-[4-(2-ethylhexyl)benzyl]-3-(2,4-difluorophenyl)urea], the response vs control in vivo at 0.003 % was 56% with cholesterol absorption (setting [3]) and 63% with cholesterol absorption (setting [4]).
Take `CCCCCCCN(Cc1ccc(CC(C)CC)cc1)C(=O)Nc1ccc(F)cc1F` (stereo not shown) [1-(n-Heptyl)-1-[4-(2-methylbutyl)benzyl]-3-(2,4-difluorophenyl)urea]: the response vs control in vivo at 0.01 % came out at 42% in the experiment on cholesterol absorption (setting [3]) and 36% in the experiment with cholesterol absorption (setting [4]).
For `CCCCCCCN(Cc1ccc(CC(C)C(C)CC)cc1)C(=O)Nc1ccc(F)cc1F` (stereo not shown) [1-(n-Heptyl)-1-[4-(2,3-dimethylpentyl)benzyl]-3-(2,4-difluorophenyl)urea], in that order: 63% and 48%.
As for `CCCCCCCN(Cc1ccc(CCOC(C)=O)cc1)C(=O)Nc1ccc(F)cc1F` [1-(n-Heptyl)-1-[4-(2-acetoxyethyl)benzyl]-3-(2,4-difluorophenyl)urea], the response vs control in vivo at 0.003 % stood at 60% in the experiment on cholesterol absorption (setting [3]) and 55% in the experiment on cholesterol absorption (setting [4]).
The like results for `CCCCCCCN(Cc1ccc(CCCC(C)C)cc1)C(=O)Nc1ccc(F)cc1F` [1-(n-Heptyl)-1-[4-(isohexyl)benzyl]-3-(2,4-difluorophenyl)urea] were, in that order, 53% and 45%.
Turning to `CCCCCCCN(Cc1ccc(C2CCCC2)cc1)C(=O)Nc1ccc(F)cc1F` [1-(n-Heptyl)-1-[4-(cyclopentyl)benzyl]-3-(2,4-difluorophenyl)urea], the response vs control in vivo at 0.003 % in the experiment with cholesterol absorption (setting [3]) stood at 82%; with cholesterol absorption (setting [4]), 80%.
On to `Cc1cc(Cl)cc(C)c1NC(=O)N(CCCCC(C)C)Cc1ccc(CCC(C)C)cc1` [1-(Isoheptyl)-1-[4-(isopentyl)benzyl]-3-(4-chloro-2,6-dimethylphenyl)urea], for which the response vs control in vivo at 0.001 % in the experiment with cholesterol absorption (setting [3]) and in the experiment on cholesterol absorption (setting [4]) was 40% in each case.
As for `CCCCCCCN(Cc1ccc(CC2CCCC2)cc1)C(=O)Nc1c(F)cc(F)cc1F` [1-(n-Heptyl)-1-[4-(cyclopentylmethyl)benzyl]-3-(2,4,6-trifluorophenyl)urea], the response vs control in vivo at 0.003 % is 50% in the experiment on cholesterol absorption (setting [3]) and 62% in the experiment on cholesterol absorption (setting [4]).
For `CCCCCCCN(Cc1ccc(C2CCCC2)cc1)C(=O)Nc1c(Cl)cc(Cl)cc1Cl` [1-(n-Heptyl)-1-[4-(cyclopentyl)benzyl]-3-(4-chloro-2,6-dichlorophenyl)urea], in that order: 36% and 35%.
Turning to `CCCCCCCN(Cc1ccc(CC(C)CC)cc1)C(=O)Nc1c(F)cc(F)cc1F` (stereo not shown) [1-(n-Heptyl)-1-[4-(2-methylbutyl)benzyl]-3-(2,4,6-trifluorophenyl)urea], the response vs control in vivo at 0.001 % in the experiment on cholesterol absorption (setting [3]) was 64%; with cholesterol absorption (setting [4]), 76%.
Take `CCCCCCCN(Cc1ccc(CC[S+]([O-])C(C)C)cc1)C(=O)Nc1c(C)cc(Cl)cc1C` (stereo not shown) [1-(n-Heptyl)-1-[4-(2-isopropylsulfinylethyl)benzyl]-3-(4-chloro-2,6-dimethylphenyl)urea]: the response vs control in vivo at 0.003 % was found to be 54% in the experiment on cholesterol absorption (setting [3]) and 45% in the experiment with cholesterol absorption (setting [4]).
Regarding `CCCCCCCN(Cc1ccc(CCCC(C)C)cc1)C(=O)Nc1c(F)cc(F)cc1F` [1-(n-Heptyl)-1-[4-(isohexyl)benzyl]-3-(2,4,6-trifluorophenyl)urea], the response vs control in vivo at 0.001 % was found to be 78% in the experiment with cholesterol absorption (setting [3]) and 77% in the experiment with cholesterol absorption (setting [4]).
For the molecule `CCCCCCCN(Cc1ccc(CC(C)(C)C)cc1)C(=O)Nc1ccc(F)cc1F` [1-(n-Heptyl)-1-[4-(2,2-dimethylpropyl)phenylmethyl]-3-(2,4-difluorophenyl)urea], the figures for the response vs control in vivo at 0.01 % in the experiment on cholesterol absorption (setting [3]) and with cholesterol absorption (setting [4]) were 51% and 22%, respectively.
Take `CCCCCCOc1ccc(CN(CCCC)C(=O)Nc2c(C)cc(C)cc2C)cc1` [1-(n-Butyl)-1-(4-hexyloxybenzyl)-3-(2,4-trimethylphenyl)urea]: the response vs control in vivo at 0.03 % in the experiment on cholesterol absorption (setting [3]) stood at 15%; in the experiment on cholesterol absorption (setting [4]), 54%.
Turning to `CCCCCCCN(Cc1ccc(OCCC(C)C)cc1)C(=O)Nc1c(C)cc(Cl)cc1C` [1-(n-Heptyl)-1-[4-(isopentyloxy)benzyl]-3-(4-chloro-2,6-dimethylphenyl)urea], the values for the response vs control in vivo at 0.001 % in the experiment on cholesterol absorption (setting [3]) and in the experiment with cholesterol absorption (setting [4]) were 23% and 25%, respectively.
